Laboratory results taken from patent US7662767B2, “Polynucleotide intercalator interceptors and inhibitors” (Materials Evolution and Development USA, Inc., priority 2000, dated 2010).
Where “and” joins values, the source holds several entries; their conditions need not be identical. Equal entries are not always repeated. Where two headings read alike, the source gives them in different places.

Tests used:
[1] = Acridine orange self-association (AO-AO dimer), spectrofluorometry λem 530 nm; assay type: binding; conditions: hydrochloride
Protocol: Association constants were calculated using a modification of an equation described by Zaini et al. (1999) to determine equilibrium constants for weakly bound complexes by absorbance spectrophotometry. By definition K=Xd/(Xm* Xm), where K is the binding constant Kassoc, Xd is the concentration of the AO dimer and Xm is the concentration of the AO monomer. Conservation of mass gives Xt=Xm+2*Xd, where Xt is the total concentration of AO in solution. Rearranging the conservation of mass equation gives Xm=Xt−2*Xd, and substituting into the equation for Kassoc and rearranging gives Equation 4: Kassoc(Xt*Xt−4*Xt*Xd+4*Xd*Xd)−Xd=0 EQUATION 4:
Rearranging gives: Xd*Xd−(Xt+1/(4*.Kassoc)*Xd+Xt*Xt/4=0 EQUATION5:
Applying the quadratic formula (X=[−B±SQRT(B^2−4AC]/2A) to Equation 3-5 and taking a physically reasonable root gives Equation 3-6: Xd=[Xt+1/(4*K)−SQRT(Xt/(2*K)+1/[…])]/2 EQUATION 6:
Where SQRT ( ) indicates taking the square root of the content of the parentheses. The fluorescence values at λem 530 nm (F530) is a function of Xt and F530=Xd*ε, where “ε” is the fluorescence yield of the dimer. The equation was solved by non-linear least squares using Prism™ software and binding constants determined. Concentrations of the reactants were adjusted for dilution whereas AO concentrations are reported without adjustment for dilution. Fluorescence values (fi) are reported as raw data normalized to scale and not adjusted by a dilution factor following aliquot additions. Absorbance data taken at 468 nm was also used to calculate the Kassoc for the AO-AO dimer using Equation 6.
The error bars shown standard deviation unless obscured by legend symbols (n=4). The results also indicate the effect of a physiological concentration of NaCl [150 mM] on the fluorescence of AO at both λem 530 nm (green) and λem 635 nm (red) over a range of AO concentrations from 0.5 μM to 10.0 μM. At an AO concentration of between 5-6 μM, the amplitude of green fluorescence at λem 530 nm increases abruptly. The red fluorescence (λem 635 nm) also increases abruptly between 5-6 μM. However, the magnitude of the increase at λem 635 nm is proportionally less than that found at λem 530 nm. As the concentration of AO increases from 5 μM to 6 μM, the mean fluorescence values were changed from 457±16 to 5,197 ±289 at λem 530 nm and from 174±4 to 1,371±41 at λem 635 nm (n=4). […] The example shown in FIG. 3-2B depicts the binding plot calculated at λem 530 nm for the molecular association of AO with itself in the absence of and in the presence of NaCl. The association constants (Kassoc) for AO derived from these two plots are 118,000±16,120 M^−1 (R^2=0.98) in the presence of NaCl [150 mM] and 37,410±4,758 M^−1(R^2=0.97) in the absence of NaCl. Error bars denote standard deviation unless hidden by legend symbols (n=4). The presence of 150 mM NaCl has no significant effect on the fluorescence intensity of AO at either λem 530 nm or λem 635 nm at AO concentrations of 6 μM and above.
Association constants were calculated for AO self-association by assuming the fluorescence values derived at λem 530 nm reflect the extent of dimer formation. Association constants (Kassoc) were calculated from the change in mean fluorescence values (delta fluorescence) at λem 530 nm (see FIG. 3-2B). At AO concentrations from 0.5 μM to 5 μM, Kassoc was determined to be 37,410±4,758 M^−1 (R^2=0.97) in the absence of NaCl and 118,000±16,120 M^−1 (R^2=0.98) in the presence of 150 mM NaCl (see FIG. 3-2B). For AO concentrations >5 μM, the association constants were determined to be 46,700±1,807 M^−1 (R^2=0.99) for AO alone and 41,820±3,671 M^−1 (R^2=0.99) for AO in the presence of NaCl. This indicates a significant AO concentration dependent difference in the association constant in the presence of 150 mM NaCl at low AO concentrations (<5 μM) but not a significant difference at AO concentrations above 5 μM.

[2] = AO-CAF, cited from earlier work

| Compound | K ± S.D. ([1]; Fluorescence plus NaCl 150 mM, AO [0.5-5.0 μM]) | K ± S.D. ([1]; Fluorescence plus NaCl 150 mM, AO [0.5-5.0 μM], listed as AO-AO) | K ± S.D. ([1]; Fluorescence plus NaCl, AO [6.0-10.0 μM]) | K ± S.D. ([1]; Fluorescence plus NaCl, AO [6.0-10.0 μM], listed as AO-AO) | K ± S.D. ([1]; Fluorescence, AO [0.5-5.0 μM], absence of NaCl) | K ± S.D. ([1]; Fluorescence, AO [0.5-5.0 μM], absence of NaCl, listed as AO-AO) | K ± S.D. ([1]; Fluorescence, AO [6.0-10.0 μM], absence of NaCl) | K ± S.D. ([1]; Fluorescence, AO [6.0-10.0 μM], absence of NaCl, listed as AO-AO) | K ± S.D. ([2]; Absorbance plus NaCl 150 mM, AO [20 μM], CAF [1-2000 μM], Kapuscinski & Kimmel, 1993) [M⁻¹] | K ± S.D. ([2]; Absorbance, AO [10 μM], CAF [1-5000 μM], Larsen et al., 1996) [M⁻¹] | K ± S.D. ([2]; Absorbance, AO [20 μM], CAF [1-2000 μM], Kapuscinski & Kimmel, 1993) [M⁻¹] |
| --- | --- | --- | --- | --- | --- | --- | --- | --- | --- | --- | --- |
| CN(C)c1ccc2cc3ccc(N(C)C)cc3nc2c1.Cl [AO, 3,6-bis[dimethylamino]acridine hydrochloride] | 118,000±16,120 M^−1 and 118,000 M^−1 | 118,000 ± 16,120 M^−1 | 41,820±3,671 M^−1 | 41,820 ± 3,671 M^−1 | 37,410±4,758 M^−1 and 37,410 M^−1 | 37,410 ± 4,758 M^−1 | 46,700±1,807 M^−1 | 46,700 ± 1,807 M^−1 | – | – | – |
| Cn1c(=O)c2c(ncn2C)n(C)c1=O [1,3,7-trimethyl xanthine (caffeine), 1,3,7-trimethyl xanthine] | – | – | – | – | – | – | – | – | 169 ± 9 | 258 ± 5 | 258 ± 7 |
